“Also recorded” adds a separate entry of the source.
Columns and labels:
MO7e cells [1] = assay: 6MP cytotoxicity in MO7e cells and CRISPR knock-outs; assay type: cell-based, Human; settings: MO7e vs. ABCC4 KO; Antimycin A 10 nM, in words
Method: (§1) HEK293 cells transfected with ABCC4 or ABCC4ΔC in the presence or absence of MPP1, MO7e, and Meg01 cells were treated with 10 concentrations of 6MP, ranging from 1 to 1000 µM, for 96 h. Cell viability analysis was determined using CellTiter Glo (Promega). Where applicable, cell penetrating peptides conjugated to the PDZ-binding motif of ABCC4 (labeled either ABCC4-PDZ or ABCC4ΔC) were added to the cells at 20 μM. Media was changed daily and new ABCC4-PDZ/ABCC4ΔC peptide and 6MP was added. IC50 values were calculated using GraphPad Prism.
CRISPR-Cas9 plasmids containing gRNAs against ABCC4 ([…]) and MPP1 ([…]) were purchased from Sigma Aldrich. MO7e cells were transiently transfected with constructs containing the gRNA, Cas9 Nickase, and a flurophore. Forty-eight hours after transfection, cells were sorted for fluorescent positive cells and single cells were sorted into individual wells of a 96-well plate. Single-sorted cells were allowed to expand and deletion of the gene of interest was verified by immunoblotting.
(§2) The Meg01, MO7e, and ABCC4 KO MO7e cell lines were plated at 1500 cells per well in a 96-well plate. Cells were treated with 10 concentrations of Antimycin A (Santa Cruz) ranging from 0.01 to 1000 μM. Cell viability was determined using CellTiter Glo (Promega). Meg01, MO7e, and ABCC4 KO MO7e cells in the presence or absence of 10 nM Antimycin A were treated with 10 concentrations of 6MP, ranging from 1 to 1000 µM, for 96 h. Cell viability analysis was determined using CellTiter Glo. IC50 values were calculated using GraphPad Prism.

MO7e cells [2] = assay: Cytarabine cytotoxicity in MO7e cells; assay type: cell-based, Human; settings: in words
Method: MO7e cells were seeded at 1500 cells per well of a 96-well plate. Cells were then treated with Cytarabine at increasing concentrations ranging from 0.5 to 500 μM for 4 h in serum-free media. Cells were washed three times with PBS and replaced with fresh complete media for 68 h. Cell viability analysis was determined using CellTiter Glo. Where applicable, cells were treated with 10 nM Antimycin A. IC50 values were calculated using GraphPad Prism.

[3] = Antimycin A cytotoxicity in MO7e and ABCC4 KO MO7e cells; assay type: cell-based, Human; settings: human, 0.01 to 1000 μM, CellTiter Glo, triplicate
Method: (§3) The Meg01, MO7e, and ABCC4 KO MO7e cell lines were plated at 1500 cells per well in a 96-well plate. Cells were treated with 10 concentrations of Antimycin A (Santa Cruz) ranging from 0.01 to 1000 μM. Cell viability was determined using CellTiter Glo (Promega). […] Cell viability analysis was determined using CellTiter Glo. IC50 values were calculated using GraphPad Prism.

MO7e cells [4] = assay: as above; assay type: cell-based, Human; settings: MO7e; 6MP 10 μM (sublethal), in words
Method: as §3

[5] = system: primary AML cells from adult patients; assay: Annexin V/PI apoptosis in primary AML patient samples; assay type: cell-based, Human; settings: 50 or 100 µM cytarabine + 10 nM Antimycin A 4 h, then 44 h ± Antimycin A; triplicates; in words
Method: Primary AML cells from adult patients were treated with either vehicle, 50 or 100 µM cytarabine, 10 nM Antimycin A, or the combination of 50 or 100 µM cytarabine + 10 nM Antimycin A for 4 h. Post treatment, the cells were washed with fresh media (2×) and resuspended in the absence or presence of 10 nM Antimycin A and cultured for an additional 44 h (for a total treatment time of 48 h). The cells were then stained with Annexin V-fluorescein isothiocyanate (FITC)/propidium iodide (PI) apoptosis Kit (Beckman Coulter; Brea, CA, USA). The stage of apoptotic cells (Annexin V-positive, but early or late apoptosis) is identified by the proportion of AnnexinV+/PI− (early apoptosis) and Annexin V+/PI+ (late apoptosis) cells. This experiment was performed once in triplicates (presented as average ± SEM) due to the limited sample availability. Patient samples were selected based on the availability of an adequate number of cells to perform the assay.

Meg01 cells = assay: 6MP cytotoxicity in Meg01 cells; assay type: cell-based, Human; settings: Antimycin A 10 nM, in words
Method: as §1, §2

MPP1 = target: T1, MPP1 (Homo sapiens, UniProt Q00013); assay: MPP1 protein expression (immunoblot); assay type: cell-based; settings: Antimycin A treatment; Meg01 cells (Supplementary Fig. 6e), in words
T1 construct: incubated with various concentrations of full-length MPP1; His tag (N); S-tag (N); made in house; host or cells: E. coli
T1 sequence (Q00013 1-466): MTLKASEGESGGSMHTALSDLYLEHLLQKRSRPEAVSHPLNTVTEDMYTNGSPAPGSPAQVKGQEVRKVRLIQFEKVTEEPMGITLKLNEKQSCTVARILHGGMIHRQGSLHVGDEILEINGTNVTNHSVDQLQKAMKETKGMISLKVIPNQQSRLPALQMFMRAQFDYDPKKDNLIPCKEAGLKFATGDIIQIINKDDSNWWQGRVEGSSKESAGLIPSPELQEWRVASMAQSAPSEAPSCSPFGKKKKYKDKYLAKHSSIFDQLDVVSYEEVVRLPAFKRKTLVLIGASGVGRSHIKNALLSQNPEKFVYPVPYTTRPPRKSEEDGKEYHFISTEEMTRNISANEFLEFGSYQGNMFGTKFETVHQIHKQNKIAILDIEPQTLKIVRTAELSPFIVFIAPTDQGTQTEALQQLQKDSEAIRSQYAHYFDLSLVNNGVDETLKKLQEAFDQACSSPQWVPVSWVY
Description: Forty-eight hours after transfection, cells were trypsinized and washed twice in PBS. Cells were lysed in MPER lysis buffer (Pierce) containing 1× protease inhibitor cocktail (Roche). Cell lysates were subjected to three rounds of sonication on ice with a minimum of 15 s of sonication per round. Protein concentration of the lysates was quantified using a Bradford assay (Biorad). Twenty-five micrograms of total protein lysates were loaded and separated by SDS-PAGE on a 10% gel. Proteins were then transferred to a nitrocellulose membrane (GE Healthcare) and probed with antibodies directed against various proteins of interest. The levels of pAcGFP-tagged ABCC4 and ABCC4ΔC were determined using the polyclonal full-length GFP antibody (1:2000, Santa Cruz). The level of MPP1 was detected using the monoclonal p55/MPP1 antibody (1:2500) from Epitomics. Where specified, the levels of ABCC4 were detected by using the rat monoclonal M4I10 antibody (1:2000, Abcam). An anti-Actin antibody was used as a loading control (1:10,000). Secondary antibodies conjugated to HRP (1:2000, GE Healthcare) were used. For co-immunoprecipitation experiments, light chain-specific secondary antibodies (1:5000, Jackson Immunoresearch) was used to prevent cross-contamination with heavy chain antibodies. The Clarity chemiluminescence (BioRad) reagent was used to detect the proteins. […]

Question: For `CCCCCC[C@H]1C(=O)O[C@H](C)[C@H](NC(=O)c2cccc(NC=O)c2O)C(=O)O[C@@H](C)[C@@H]1OC(=O)CC(C)C` [Antimycin A], which “effect of Antimycin A on 6MP sensitivity” value (MO7e cells [1]) is on record?
Answer: shifted the 6MP dose–response curve to the left, but only for cells harboring ABCC4, not ABCC4 KO cells; also recorded: specifically sensitizes ABCC4 expressing MO7e cells, but not ABCC4 KO cells

Question: What about the “effect of Antimycin A on cytarabine sensitivity” value (MO7e cells [2]; MO7e vs. MO7e-ABCC4 knockout, Antimycin A 10 nM) of the same compound?
Answer: specifically sensitized MO7e cells to Cytarabine, but not MO7e-ABCC4 knockout cells; also recorded: specifically sensitizes ABCC4 expressing MO7e cells, but not ABCC4 KO cells

Question: What about the “effect of co-treatment on IC50 for cytarabine” value (MO7e cells [2]; peer review file) of the same compound?
Answer: reduce the IC50 for cytarabine

Question: And the IC50 ([3]; MO7e ABCC4 KO cells, MO7e ABCC4 KO)?
Answer: 1700 nM

Question: And the IC50 ([3]; MO7e cells, MO7e)?
Answer: 2200 nM

Question: What about the “Antimycin A cytotoxicity in combination with non-cytotoxic 6MP” value (MO7e cells [4]) of the same compound?
Answer: sensitizes MO7e cells to Antimycin A; also recorded: shifted the Antimycin A survival curve to the left indicating greater toxicity when an ABCC4 substrate was present

Question: And the “Antimycin A enhancement of cytarabine-induced apoptosis in primary AML samples” value [5]?
Answer: Three of the 5 patients; also recorded: enhanced cytarabine cytoxicity in three primary AML patient samples; also recorded: did not show enhancement on cytarabine-induced apoptosis; also recorded: increased Annexin V^+ percentage of cells with combination treatment of Antimycin A and cytarabine vs cytarabine alone

Question: What about the “effect of Antimycin A on 6MP sensitivity” value (Meg01 cells) of the same compound?
Answer: sensitized to 6MP by Antimycin A (10 nM)

Question: What about the “effect on protein expression of MPP1” value (MPP1) of the same compound?
Answer: unchanged; also recorded: does not reduce the protein expression of MPP1

From article PMC5691054, “An unexpected protein interaction promotes drug resistance in leukemia” (Nature Communications, 2017)
